Reference: article PMC4914680 (Antimicrobial Agents and Chemotherapy, 2016)
Where two headings read alike, the source gives them in different places.

Key:
HIV-1 HXB2 = assay: Multiple-cycle assay, laboratory strains; type: cell-based; settings: Human immunodeficiency virus 1; HXB2, CXCR4, MT-2
HIV-1 LAI = assay: Multiple-cycle assay, laboratory strains; type: cell-based; settings: Human immunodeficiency virus 1
HIV-2 ROD = assay: Multiple-cycle assay, laboratory strains; type: cell-based; settings: Human immunodeficiency virus 2, MT-2
HIV-2 CBL-23 = assay: Multiple-cycle assay, laboratory strains; type: cell-based; settings: HIV-2 CBL-23, MT-2
HIV-1 gp160 = target: T1, HIV-1 gp160 (Human immunodeficiency virus type 1 group M subtype B, UniProt P04578); assay: HIV-1 cell fusion assay; type: cell-based
T1 construct: expressed in transfected cells; host or cells: NL-TOE donor cells (target cells: HeLa C14)

[1] = tested on: HIV-1 subtype B clinical isolates; assay: Drug susceptibility assay using clinical isolates in PBMCs
[2] = tested on: HIV-1 subtype A clinical isolates; assay: as above; settings: Human immunodeficiency virus 1, PBMC
[3] = tested on: HIV-1 subtype G clinical isolates; assay: as above; settings: Human immunodeficiency virus 1, PBMC
[4] = tested on: viruses from subtypes A, C, D, F, and G; assay: as above; settings: Human immunodeficiency virus 1, PBMC, read-out: EC50s (range)
[5] = human, serum

Structure (SMILES): C=C(C)[C@@H]1CC[C@]2(NCCN3CCS(=O)(=O)CC3)CC[C@]3(C)[C@H](CC[C@@H]4[C@@]5(C)CC=C(c6ccc(C(=O)O)cc6)C(C)(C)[C@@H]5CC[C@]43C)[C@@H]12 [BMS-955176]
- EC50 (HIV-1 HXB2): 11 ± 2 nM
- EC50 (HIV-1 LAI): 2.6 ± 0.3 nM
- EC50 (HIV-2 ROD): 15 ± 1.2 nM
- EC50 (HIV-2 CBL-23): completely resistant
- EC50 (HIV-2 CBL-23; Human immunodeficiency virus 2, read-out: EC50): > 1200 nM
- EC50 (HIV-1 gp160): > 2000 nM
- EC50 ([1]; Human immunodeficiency virus 1, PBMC, read-out: Mean EC50 ± SD, PBMCs, B (96% of Gag diversity), 22 isolates): 24 ± 24 nM
- EC50 ([1]; Human immunodeficiency virus 1, PBMC, read-out: Mean EC50 ± SD, PBMCs, B (all), 26 isolates): 67 ± 172 nM
- EC50 ([1]; Human immunodeficiency virus 1, PBMC, read-out: Median EC50, PBMCs, B (96% of Gag diversity), 22 isolates): 17 nM
- EC50 ([1]; Human immunodeficiency virus 1, PBMC, read-out: Median EC50, PBMCs, B (all), 26 isolates): 21 nM
- EC50 ([1]; Human immunodeficiency virus 1, PBMC, read-out: Range EC50, PBMCs, B (96% of Gag diversity), 22 isolates): 1 to 110 nM
- EC50 ([1]; Human immunodeficiency virus 1, PBMC, read-out: Range EC50, PBMCs, B (all), 26 isolates): 1 to 858 nM
- EC50 ([1]; Human immunodeficiency virus 1, PBMC, read-out: mean EC50, PBMCs, three less susceptible subtype B variants with Gag V370A/ΔT371): 123 ± 162 nM
- EC50 ([1]; PBMC): 860 nM
- EC50 ([2]; PBMCs, one less sensitive subtype A isolate): 280 nM
- EC50 ([2]; read-out: Mean EC50 ± SD, PBMCs, A, 13 of 14 isolates): 26 ± 25 nM
- EC50 ([2]; read-out: Mean EC50 ± SD, PBMCs, A, 14 isolates): 44 ± 72 nM
- EC50 ([2]; read-out: Median EC50, PBMCs, A, 13 of 14 isolates): 20 nM
- EC50 ([2]; read-out: Median EC50, PBMCs, A, 14 isolates): 21 nM
- EC50 ([2]; read-out: Range EC50, PBMCs, A, 13 of 14 isolates): 5 to 87 nM
- EC50 ([2]; read-out: Range EC50, PBMCs, A, 14 isolates): 5 to 280 nM
- EC50 ([2]; read-out: median EC50 values, Fig 7, PBMCs, A (Group M)): 20000 nM
- EC50 ([3]; read-out: Mean EC50 ± SD): 11 ± 4 nM
- EC50 ([3]; read-out: Median EC50): 10 nM
- EC50 ([3]; read-out: Range EC50): 8 to 15 nM
- EC50 [4]: 5.9 to 87 nM
- fraction unbound [5]: 0.18
